Measurements as given in the supplement of paper PMC10307832.

What was measured:
Experiment in all cases: relative viability (nuclei count vs DMSO), 5 days (fraction); higher = more cells survive
Palbociclib + Alpelisib = compound: CC(=O)c1c(C)c2cnc(Nc3ccc(N4CCNCC4)cn3)nc2n(C2CCCC2)c1=O [Palbociclib] + Cc1nc(NC(=O)N2CCC[C@H]2C(N)=O)sc1-c1ccnc(C(C)(C)C(F)(F)F)c1 [Alpelisib] (partner 2 µM)
In short: (§1)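 Medians of duplicate plates are given as relative viability. That measure is the nuclei count in treated wells divided by the count in vehicle wells. Counts were taken on 4× images of lung cancer cell lines in 1536-well plates, 5 days after pin-tool dosing the day after seeding with one drug alone or a fixed anchor-drug dose plus five library-drug doses (not always all listed) in √10 steps.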

Palbociclib + Crizotinib = compound: CC(=O)c1c(C)c2cnc(Nc3ccc(N4CCNCC4)cn3)nc2n(C2CCCC2)c1=O [Palbociclib] + C[C@@H](Oc1cc(-c2cnn(C3CCNCC3)c2)cnc1N)c1c(Cl)ccc(F)c1Cl [Crizotinib] (partner 1 µM)
In short: as §1

Palbociclib + Pictilisib = compound: CC(=O)c1c(C)c2cnc(Nc3ccc(N4CCNCC4)cn3)nc2n(C2CCCC2)c1=O [Palbociclib] + CS(=O)(=O)N1CCN(Cc2cc3nc(-c4cccc5[nH]ncc45)nc(N4CCOCC4)c3s2)CC1 [Pictilisib] (partner 1 µM)
In short: as §1

Palbociclib + Dasatinib = compound: CC(=O)c1c(C)c2cnc(Nc3ccc(N4CCNCC4)cn3)nc2n(C2CCCC2)c1=O [Palbociclib] + Cc1nc(Nc2ncc(C(=O)Nc3c(C)cccc3Cl)s2)cc(N2CCN(CCO)CC2)n1 [Dasatinib] (partner 0.075 µM)
In short: as §1

Row | Cell Line | relative viability (Palbociclib + Alpelisib; first compound 0.01 µM) | relative viability (Palbociclib + Alpelisib; first compound 0.03162 µM) | relative viability (Palbociclib + Alpelisib; first compound 0.1 µM) | relative viability (Palbociclib + Alpelisib; first compound 0.3162 µM) | relative viability (Palbociclib + Alpelisib; first compound 1 µM) | relative viability (Palbociclib + Crizotinib; first compound 0.01 µM) | relative viability (Palbociclib + Crizotinib; first compound 0.03162 µM) | relative viability (Palbociclib + Crizotinib; first compound 0.1 µM) | relative viability (Palbociclib + Crizotinib; first compound 0.3162 µM) | relative viability (Palbociclib + Crizotinib; first compound 1 µM) | relative viability (Palbociclib + Pictilisib; first compound 0.01 µM) | relative viability (Palbociclib + Pictilisib; first compound 0.03162 µM) | relative viability (Palbociclib + Pictilisib; first compound 0.1 µM) | relative viability (Palbociclib + Pictilisib; first compound 0.3162 µM) | relative viability (Palbociclib + Pictilisib; first compound 1 µM) | relative viability (Palbociclib + Dasatinib; first compound 0.01 µM) | relative viability (Palbociclib + Dasatinib; first compound 0.03162 µM) | relative viability (Palbociclib + Dasatinib; first compound 0.1 µM) | relative viability (Palbociclib + Dasatinib; first compound 0.3162 µM) | relative viability (Palbociclib + Dasatinib; first compound 1 µM)
1 | NCI-H1437 | 0.946 | 1.06 | 0.857 | 0.889 | 0.48 | 1.05 | 0.855 | 0.807 | 0.782 | 0.506 | 0.424 | 0.38 | 0.366 | 0.317 | 0.162 | 0.382 | 0.344 | 0.425 | 0.34 | 0.231
2 | NCI-H2023 | 0.663 | 0.589 | 0.427 | 0.475 | 0.247 | 0.568 | 0.58 | 0.49 | 0.367 | 0.272 | 0.2 | 0.151 | 0.151 | 0.15 | 0.111 | 0.536 | 0.488 | 0.351 | 0.453 | 0.246
3 | UMC-11 | 0.996 | 0.931 | 0.604 | 0.459 | 0.254 | 0.603 | 0.519 | 0.428 | 0.346 | 0.177 | 0.873 | 0.671 | 0.429 | 0.36 | 0.219 | 0.491 | 0.395 | 0.346 | 0.328 | 0.232
4 | NCI-H727 | 0.579 | 0.425 | 0.348 | 0.335 | 0.326 | 0.78 | 0.642 | 0.45 | 0.41 | 0.404 | 0.401 | 0.287 | 0.258 | 0.318 | 0.239 | 0.342 | 0.302 | 0.299 | 0.242 | 0.218
5 | LK-2 | 1.12 | – | 0.75 | 1.15 | 1.3 | 0.247 | – | 0.23 | 0.227 | 0.246 | 0.574 | – | 0.365 | 0.529 | 0.501 | 0.356 | – | 0.305 | 0.301 | 0.321
6 | HOP-62 | 0.851 | – | 0.797 | 0.831 | 0.648 | 0.817 | – | 0.842 | 0.812 | 0.666 | 0.775 | – | 0.516 | 0.551 | 0.358 | 0.704 | – | 0.57 | 0.525 | 0.463
7 | HCC-366 | 0.517 | – | 0.345 | 0.209 | 0.204 | 0.539 | – | 0.501 | 0.526 | 0.413 | 0.137 | – | 0.168 | 0.14 | 0.0548 | 0.611 | – | 0.605 | 0.444 | 0.174
8 | LCLC-103H | 0.756 | 1.03 | 0.821 | 0.796 | 0.688 | 1.04 | 1.04 | 0.846 | 0.995 | 0.804 | 0.564 | 0.536 | 0.543 | 0.591 | 0.436 | 0.44 | 0.331 | 0.452 | 0.367 | 0.307
9 | NCI-H1666 | 0.976 | 0.765 | 0.792 | 0.611 | 0.443 | 1.09 | 0.895 | 0.632 | 0.552 | 0.621 | 0.477 | 0.386 | 0.345 | 0.297 | 0.277 | 0.874 | 0.644 | 0.683 | 0.583 | 0.477
10 | NCI-H460 | 0.476 | 0.413 | 0.275 | 0.217 | 0.0996 | 0.938 | 0.781 | 0.581 | 0.582 | 0.205 | 0.465 | 0.302 | 0.268 | 0.318 | 0.182 | 0.459 | 0.429 | 0.392 | 0.314 | 0.162
11 | SW 1573 | 0.676 | 0.744 | 0.571 | 0.57 | 0.49 | 0.776 | 0.672 | 0.685 | 0.758 | 0.615 | 0.447 | 0.389 | 0.322 | 0.327 | 0.289 | 0.495 | 0.321 | 0.354 | 0.394 | 0.277
12 | NCI-H520 | 0.855 | 0.749 | 0.503 | 0.552 | 0.431 | 0.748 | 0.551 | 0.648 | 0.641 | 0.337 | 0.283 | 0.201 | 0.229 | 0.213 | 0.229 | 0.206 | 0.458 | 0.142 | 0.153 | 0.171
13 | LU99A | 0.539 | 0.432 | 0.425 | 0.39 | 0.33 | 0.636 | 0.559 | 0.496 | 0.428 | 0.389 | 0.328 | 0.287 | 0.239 | 0.236 | 0.225 | 0.506 | 0.428 | 0.353 | 0.344 | 0.379
14 | RERF-LC-KJ | 0.893 | 0.866 | 0.827 | 0.798 | 0.867 | 0.909 | 0.82 | 0.82 | 0.88 | 0.87 | 0.53 | 0.459 | 0.464 | 0.484 | 0.629 | 0.832 | 0.802 | 0.717 | 0.852 | 0.922
15 | NCI-H596 | 0.555 | 0.462 | 0.498 | 0.477 | 0.525 | 0.98 | 0.905 | 0.986 | 1.05 | 0.973 | 0.379 | 0.422 | 0.385 | 0.397 | 0.387 | 0.606 | – | 0.551 | 0.599 | 0.613
16 | SK-LU-1 | 1.02 | 0.921 | 0.581 | 0.599 | 0.464 | 0.908 | 0.738 | 0.624 | 0.67 | 0.471 | 0.559 | 0.474 | 0.445 | 0.383 | 0.286 | 0.183 | 0.157 | 0.147 | 0.133 | 0.161
17 | H3255 | 0.714 | 0.599 | 0.469 | 0.488 | 0.36 | 1.03 | 0.688 | 0.672 | 0.689 | 0.451 | 0.517 | 0.376 | 0.394 | 0.434 | 0.261 | 0.347 | 0.386 | 0.338 | 0.322 | 0.277
18 | NCI-H2085 | 1.03 | 0.891 | 0.923 | 0.84 | 0.616 | 0.895 | 0.823 | 0.513 | 0.695 | 0.576 | 0.517 | 0.427 | 0.398 | 0.361 | 0.318 | 0.233 | 0.282 | 0.209 | 0.252 | 0.191
19 | NCI-H2009 | 1.07 | 1.06 | 0.925 | 0.874 | 0.326 | 1.02 | 0.913 | 0.838 | 0.695 | 0.331 | 0.758 | 0.453 | 0.462 | 0.411 | 0.182 | 0.272 | 0.212 | 0.187 | 0.223 | 0.159
20 | A-427 | 1.08 | 0.951 | 0.929 | 0.893 | 0.816 | 0.963 | 0.83 | 0.668 | 0.728 | 0.614 | 0.703 | 0.648 | 0.592 | 0.447 | 0.347 | 0.672 | 0.607 | 0.561 | 0.523 | 0.485
21 | NCI-H647 | 1.33 | 0.986 | 0.979 | 1.02 | 0.532 | 0.947 | 0.809 | 0.759 | 0.735 | 0.462 | 0.423 | – | 0.275 | 0.307 | 0.278 | 0.177 | 0.142 | 0.143 | 0.163 | 0.139
22 | NCI-H838 | 1.03 | 0.918 | 0.829 | 0.883 | 0.441 | 0.795 | 0.808 | 0.645 | 0.551 | 0.413 | 0.393 | 0.329 | 0.307 | 0.348 | 0.197 | 0.278 | 0.318 | 0.213 | 0.22 | 0.213
23 | NCI-H2087 | 1.18 | 0.962 | 0.824 | 0.68 | 0.531 | 0.802 | 0.901 | 0.618 | 0.643 | 0.375 | 0.83 | 0.669 | 0.478 | 0.498 | 0.393 | 0.784 | – | 0.658 | 0.385 | 0.328
24 | CAL-12T | 1.11 | 1.05 | 0.84 | 0.652 | 0.603 | 0.598 | 0.464 | 0.466 | 0.511 | 0.374 | 0.471 | – | – | 0.263 | 0.281 | 0.486 | 0.383 | 0.248 | 0.273 | 0.22
25 | NCI-H1755 | 0.949 | 0.855 | 0.802 | 0.766 | 0.575 | 0.927 | 0.889 | 0.707 | 0.706 | 0.539 | 0.437 | 0.297 | 0.337 | 0.29 | 0.263 | 0.381 | 0.373 | 0.371 | 0.399 | 0.279
